Experimental data from US7728012B2, “Carboxamide compounds and their use as calpain inhibitors” (Abbott GmbH & Co. KG, priority 2006, dated 2010).

Columns and labels:
Format in all cases: biochemical
[1] = molecular target: T1, calpain-I isolated from human erythrocytes (Homo sapiens, UniProt P07384); test: Calpain I kinetic fluorescence enzyme inhibition assay; conditions: apparent Ki from IC50 by Cheng-Prussoff; average of 2 to 4 dose-effect plots
T1 construct: calpain-I—isolated from human erythrocytes; purchased Calbiochem 208713; host or cells: human erythrocytes (tissue isolate)
T1 sequence (P07384 1-714): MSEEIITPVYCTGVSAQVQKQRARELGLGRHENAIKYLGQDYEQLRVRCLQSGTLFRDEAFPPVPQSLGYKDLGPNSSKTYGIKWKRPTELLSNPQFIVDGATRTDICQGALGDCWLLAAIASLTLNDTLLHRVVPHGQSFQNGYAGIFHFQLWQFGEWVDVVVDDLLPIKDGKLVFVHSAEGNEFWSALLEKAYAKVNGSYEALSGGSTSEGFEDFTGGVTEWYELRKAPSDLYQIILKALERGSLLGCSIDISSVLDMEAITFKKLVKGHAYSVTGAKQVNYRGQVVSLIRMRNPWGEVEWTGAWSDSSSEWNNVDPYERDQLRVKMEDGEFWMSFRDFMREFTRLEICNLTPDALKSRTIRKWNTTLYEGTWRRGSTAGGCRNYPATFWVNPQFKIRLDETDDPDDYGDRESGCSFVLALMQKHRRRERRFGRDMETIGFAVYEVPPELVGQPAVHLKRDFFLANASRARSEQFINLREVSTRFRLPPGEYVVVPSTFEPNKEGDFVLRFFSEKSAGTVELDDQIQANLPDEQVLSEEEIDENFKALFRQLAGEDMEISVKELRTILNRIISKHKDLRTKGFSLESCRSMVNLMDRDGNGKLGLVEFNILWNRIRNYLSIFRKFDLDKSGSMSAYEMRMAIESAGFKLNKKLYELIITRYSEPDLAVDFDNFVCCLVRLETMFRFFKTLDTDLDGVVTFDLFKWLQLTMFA
T1 sequence (P04632 1-268 partner): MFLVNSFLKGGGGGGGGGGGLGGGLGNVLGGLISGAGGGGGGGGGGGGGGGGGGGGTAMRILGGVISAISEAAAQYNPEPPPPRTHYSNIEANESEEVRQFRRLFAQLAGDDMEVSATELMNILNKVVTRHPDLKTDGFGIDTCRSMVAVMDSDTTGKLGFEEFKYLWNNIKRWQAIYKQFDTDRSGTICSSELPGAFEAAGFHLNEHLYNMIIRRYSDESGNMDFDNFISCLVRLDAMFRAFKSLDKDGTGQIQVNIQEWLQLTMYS

[2] = molecular target: T2, cathepsin B isolated from human liver (Homo sapiens, UniProt P07858); test: Cathepsin B kinetic fluorescence enzyme inhibition assay; conditions: selectivity ratio versus calpain I
T2 construct: cathepsin B—isolated from human liver; purchased Calbiochem 219362; host or cells: human liver (tissue isolate)
In short: (§1)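 cat B 0.25 nM + Z-Phe-Arg-AMC 100 μM; cat L 1 nM + Z-Phe-Arg-AMC 2 μM; cat S 0.5 nM (E. coli-expressed) + Z-Val-Val-Arg-AMC 20 μM. 50 mM MES pH 6.0, 2.5 mM L-Cys, RT. Ex 390/em 460, kinetic; Ki app = Cheng-Prusoff from IC50, mean of 2–4 curves.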

[3] = molecular target: T3, cathepsin K activated from recombinant human procathepsin K (Homo sapiens, UniProt P43235); test: Cathepsin K kinetic fluorescence enzyme inhibition assay; conditions: selectivity ratio versus calpain I
T3 construct: purchased Calbiochem 342001; host or cells: E. coli
T3 sequence (P43235 115-329): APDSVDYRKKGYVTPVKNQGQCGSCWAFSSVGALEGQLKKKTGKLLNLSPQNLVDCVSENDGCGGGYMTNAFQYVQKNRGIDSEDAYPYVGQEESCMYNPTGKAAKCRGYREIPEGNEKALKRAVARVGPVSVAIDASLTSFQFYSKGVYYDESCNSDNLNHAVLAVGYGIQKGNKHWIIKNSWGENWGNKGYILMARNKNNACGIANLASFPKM

[4] = molecular target: T4, cathepsin L isolated from human liver (Homo sapiens, UniProt P07711); test: Cathepsin L kinetic fluorescence enzyme inhibition assay; conditions: selectivity ratio versus calpain I
T4 construct: cathepsin L—isolated from human liver; purchased Calbiochem 219402; host or cells: human liver (tissue isolate)
T4 sequence (P07711 114-333): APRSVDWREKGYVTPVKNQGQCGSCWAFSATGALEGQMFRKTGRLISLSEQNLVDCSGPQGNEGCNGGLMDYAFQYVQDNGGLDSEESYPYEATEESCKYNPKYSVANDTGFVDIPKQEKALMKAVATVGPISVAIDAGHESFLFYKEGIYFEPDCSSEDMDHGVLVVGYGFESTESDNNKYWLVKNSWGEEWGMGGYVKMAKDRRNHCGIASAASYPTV
In short: as §1

[5] = molecular target: T5, recombinant human cathepsin S (Homo sapiens, UniProt P25774); test: Cathepsin S kinetic fluorescence enzyme inhibition assay; conditions: selectivity ratio versus calpain I
T5 construct: purchased Calbiochem 219343; host or cells: E. coli
T5 sequence (P25774 115-331): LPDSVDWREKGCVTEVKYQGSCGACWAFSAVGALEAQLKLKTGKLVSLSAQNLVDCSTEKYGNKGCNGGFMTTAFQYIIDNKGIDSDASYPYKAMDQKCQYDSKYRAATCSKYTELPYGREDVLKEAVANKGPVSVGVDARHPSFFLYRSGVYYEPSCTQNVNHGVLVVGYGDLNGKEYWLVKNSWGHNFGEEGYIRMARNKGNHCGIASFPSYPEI
In short: as §1

Row | SMILES | Ki [1] [µM] | Sel cat. B (Ki(cathepsin B)/Ki(calpain) ratio) [2] | Sel cat. K (Ki(cathepsin K)/Ki(calpain) ratio) [3] | Sel cat. L (Ki(cathepsin L)/Ki(calpain) ratio) [4] | Sel cat. S (Ki(cathepsin S)/Ki(calpain) ratio) [5]
1 | CS(=O)(=O)Nc1cnc(-n2ccc(-c3ccccc3)n2)c(C(=O)NC(Cc2ccccc2)C(=O)C(N)=O)c1 (stereo not shown) [Example 158, N-[3-Amino-2,3-dioxo-1-(phenylmethyl)propyl]-5-[(methylsulfonyl)amino]-2-(3-phenyl-1H-pyrazol-1-yl)pyridine-3-carboxamide] | 0.04 to 0.1 | ++ (Ki(cathepsin B)/Ki(calpain) ratio of ≧30) | ++ (Ki(cathepsin K)/Ki(calpain) ratio of ≧30) | ++ (Ki(cathepsin L)/Ki(calpain) ratio of ≧50) | ++ (Ki(cathepsin S)/Ki(calpain) ratio of ≧100)
2 | NC(=O)C(=O)C(Cc1ccccc1)NC(=O)c1cccnc1-n1ccc(-c2cccc3cccnc23)n1 (stereo not shown) [Example 160, N-[3-amino-2,3-dioxo-1-(phenylmethyl)propyl]-2-(3-quinolin-8-yl-1H-pyrazol-1-yl)pyridine-3-carboxamide] | 0.04 to 0.1 | ++ (Ki(cathepsin B)/Ki(calpain) ratio of ≧30) | ++ (Ki(cathepsin K)/Ki(calpain) ratio of ≧30) | ++ (Ki(cathepsin L)/Ki(calpain) ratio of ≧50) | ++ (Ki(cathepsin S)/Ki(calpain) ratio of ≧100)
3 | NC(=O)C(=O)C(Cc1cccc(F)c1)NC(=O)c1cccnc1-n1ccc(-c2ccccc2OC(F)(F)F)n1 (stereo not shown) [Example 162, N-{3-Amino-1-[(3-fluorophenyl)methyl]-2,3-dioxopropyl}-2-(3-{2-[(trifluoromethyl)oxy]phenyl}-1H-pyrazol-1-yl)pyridine-3-carboxamide] | 0.04 to 0.1 | ++ (Ki(cathepsin B)/Ki(calpain) ratio of ≧30) | ++ (Ki(cathepsin K)/Ki(calpain) ratio of ≧30) | ++ (Ki(cathepsin L)/Ki(calpain) ratio of ≧50) | ++ (Ki(cathepsin S)/Ki(calpain) ratio of ≧100)
4 | NC(=O)C(=O)C(Cc1ccccc1)NC(=O)c1cccnc1-n1ccc(-c2cc(C(F)(F)F)ccc2CN2CCOCC2)n1 (stereo not shown) [Example 163, N-[3-Amino-2,3-dioxo-1-(phenylmethyl)propyl]-2-{3-[2-(morpholin-4-ylmethyl)-5-(trifluoromethyl)phenyl]-1H-pyrazol-1-yl}pyridine-3-carboxamide] | 0.04 to 0.1 | + (10≦Ki(cathepsin B)/Ki(calpain)<30) | + (10≦Ki(cathepsin K)/Ki(calpain)<30) | + (30≦Ki(cathepsin L)/Ki(calpain)<50) | ++ (Ki(cathepsin S)/Ki(calpain) ratio of ≧100)
5 | NC(=O)C(=O)C(Cc1ccccc1)NC(=O)c1cccnc1-n1ccc(-c2cccc3c2OCC3)n1 (stereo not shown) [Example 164, N-[3-Amino-2,3-dioxo-1-(phenylmethyl)propyl]-2-[3-(2,3-dihydro-1-benzofuran-7-yl)-1H-pyrazol-1-yl]pyridine-3-carboxamide] | ≤ 0.04 | + (10≦Ki(cathepsin B)/Ki(calpain)<30) | ++ (Ki(cathepsin K)/Ki(calpain) ratio of ≧30) | ++ (Ki(cathepsin L)/Ki(calpain) ratio of ≧50) | ++ (Ki(cathepsin S)/Ki(calpain) ratio of ≧100)
6 | NC(=O)C(=O)C(Cc1ccccc1)NC(=O)c1cccnc1-n1ccc(-c2ccccc2OC(F)F)n1 (stereo not shown) [Example 166, N-[3-Amino-2,3-dioxo-1-(phenylmethyl)propyl]-2-(3-{2-[(difluoromethyl)oxy]phenyl}-1H-pyrazol-1-yl)pyridine-3-carboxamide] | ≤ 0.04 | + (10≦Ki(cathepsin B)/Ki(calpain)<30) | ++ (Ki(cathepsin K)/Ki(calpain) ratio of ≧30) | ++ (Ki(cathepsin L)/Ki(calpain) ratio of ≧50) | ++ (Ki(cathepsin S)/Ki(calpain) ratio of ≧100)
7 | NC(=O)C(=O)C(Cc1ccccc1)NC(=O)c1cccnc1-n1ccc(-c2cccc(OC(F)(F)F)c2)n1 (stereo not shown) [Example 168, N-[3-Amino-2,3-dioxo-1-(phenylmethyl)propyl]-2-(3-{3-[(trifluoromethyl)oxy]phenyl}-1H-pyrazol-1-yl)pyridine-3-carboxamide] | ≤ 0.04 | + (10≦Ki(cathepsin B)/Ki(calpain)<30) | + (10≦Ki(cathepsin K)/Ki(calpain)<30) | ++ (Ki(cathepsin L)/Ki(calpain) ratio of ≧50) | ++ (Ki(cathepsin S)/Ki(calpain) ratio of ≧100)
8 | NC(=O)C(=O)C(Cc1ccccc1)NC(=O)c1cccnc1-n1cc2c(n1)-c1ccccc1SC2 (stereo not shown) [Example 173, N-[3-Amino-2,3-dioxo-1-(phenylmethyl)propyl]-2-thiochromeno[4,3-c]pyrazol-2(4H)-ylpyridine-3-carboxamide] | ≤ 0.04 | + (10≦Ki(cathepsin B)/Ki(calpain)<30) | + (10≦Ki(cathepsin K)/Ki(calpain)<30) | ++ (Ki(cathepsin L)/Ki(calpain) ratio of ≧50) | ++ (Ki(cathepsin S)/Ki(calpain) ratio of ≧100)
9 | NC(=O)C(=O)C(Cc1ccccc1)NC(=O)c1cccnc1-n1cc2c(n1)-c1ccccc1S(=O)(=O)C2 (stereo not shown) [Example 174, N-[3-Amino-2,3-dioxo-1-(phenylmethyl)propyl]-2-(5,5-dioxidothiochromeno[4,3-c]pyrazol-2(4H)-yl)pyridine-3-carboxamide] | ≤ 0.04 | + (10≦Ki(cathepsin B)/Ki(calpain)<30) | + (10≦Ki(cathepsin K)/Ki(calpain)<30) | ++ (Ki(cathepsin L)/Ki(calpain) ratio of ≧50) | ++ (Ki(cathepsin S)/Ki(calpain) ratio of ≧100)
10 | NC(=O)C(=O)C(Cc1ccccc1)NC(=O)c1cccnc1-n1cc2c(n1)-c1cccc(Cl)c1OC2 (stereo not shown) [Example 175, N-[3-Amino-2,3-dioxo-1-(phenylmethyl)propyl]-2-(6-chlorochromeno[4,3-c]pyrazol-2(4H)-yl)pyridine-3-carboxamide] | ≤ 0.04 | ++ (Ki(cathepsin B)/Ki(calpain) ratio of ≧30) | ++ (Ki(cathepsin K)/Ki(calpain) ratio of ≧30) | ++ (Ki(cathepsin L)/Ki(calpain) ratio of ≧50) | ++ (Ki(cathepsin S)/Ki(calpain) ratio of ≧100)
11 | COc1ccc2c(c1)-c1nn(-c3ncccc3C(=O)NC(Cc3ccccc3)C(=O)C(N)=O)cc1CO2 (stereo not shown) [Example 183, N-[3-Aamino-2,3-dioxo-1-(phenylmethyl)propyl]-2-[8-(methyloxy)chromeno[4,3-c]pyrazol-2(4H)-yl]pyridine-3-carboxamide] | ≤ 0.04 | + (10≦Ki(cathepsin B)/Ki(calpain)<30) | + (10≦Ki(cathepsin K)/Ki(calpain)<30) | ++ (Ki(cathepsin L)/Ki(calpain) ratio of ≧50) | ++ (Ki(cathepsin S)/Ki(calpain) ratio of ≧100)
